Measured values published in ChEMBL document CHEMBL1201862, “PubChem BioAssay data set” (2004).
Calls of active or inactive are those of the source.

Key:
[1] = target: T1, Rac GTPase-activating protein 1 (Homo sapiens, UniProt Q9H0H5); experiment: MgcRacGAP GTPase-activating activity inhibitors, confirmation, biochemical, ADP Hunter fluorescence, primary and confirmatory (AID 624330); assay type: functional
T1 sequence (Q9H0H5 whole entry): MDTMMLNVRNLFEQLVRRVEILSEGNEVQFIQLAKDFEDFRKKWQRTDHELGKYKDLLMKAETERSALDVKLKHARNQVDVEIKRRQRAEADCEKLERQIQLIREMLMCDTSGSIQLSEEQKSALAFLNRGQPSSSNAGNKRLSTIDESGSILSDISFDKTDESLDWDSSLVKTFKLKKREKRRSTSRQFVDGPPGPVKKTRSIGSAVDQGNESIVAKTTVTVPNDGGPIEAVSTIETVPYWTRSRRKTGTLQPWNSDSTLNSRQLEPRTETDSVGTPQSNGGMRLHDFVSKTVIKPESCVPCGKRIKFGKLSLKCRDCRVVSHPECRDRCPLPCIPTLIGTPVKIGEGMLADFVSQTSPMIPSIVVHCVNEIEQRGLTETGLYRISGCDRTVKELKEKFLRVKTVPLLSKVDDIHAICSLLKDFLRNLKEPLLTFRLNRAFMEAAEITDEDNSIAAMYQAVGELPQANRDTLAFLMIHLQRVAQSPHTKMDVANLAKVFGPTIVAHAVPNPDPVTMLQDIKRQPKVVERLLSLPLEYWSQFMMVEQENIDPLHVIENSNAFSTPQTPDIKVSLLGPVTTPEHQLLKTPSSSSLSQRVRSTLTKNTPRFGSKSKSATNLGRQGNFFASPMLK

[2] = target: Glycogen synthase kinase-3 alpha (Homo sapiens, UniProt P49840); experiment: human GSK3 alpha kinase inhibition, dose response, selectivity assay for GSK3beta inhibitor project, biochemical, microfluidics, dry powder samples, set 2 (AID 623978); assay type: functional
Glycogen synthase kinase-3 alpha, sequence (P49840 whole entry): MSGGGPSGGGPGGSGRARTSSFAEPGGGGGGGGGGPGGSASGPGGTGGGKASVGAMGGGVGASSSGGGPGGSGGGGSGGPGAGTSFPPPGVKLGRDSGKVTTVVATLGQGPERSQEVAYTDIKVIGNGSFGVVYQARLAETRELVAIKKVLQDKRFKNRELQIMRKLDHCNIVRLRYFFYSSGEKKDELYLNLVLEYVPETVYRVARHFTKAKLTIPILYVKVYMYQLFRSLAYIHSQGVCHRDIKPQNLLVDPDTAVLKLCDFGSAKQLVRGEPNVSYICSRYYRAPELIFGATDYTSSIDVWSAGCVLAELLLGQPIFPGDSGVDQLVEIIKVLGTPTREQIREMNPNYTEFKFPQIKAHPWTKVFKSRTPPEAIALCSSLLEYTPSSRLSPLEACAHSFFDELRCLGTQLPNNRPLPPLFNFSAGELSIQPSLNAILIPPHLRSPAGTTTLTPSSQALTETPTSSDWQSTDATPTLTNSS

[3] = target: Cyclin-dependent kinase 5/CDK5 activator 1 (Homo sapiens, UniProt Q00535); experiment: CDK5-p25 kinase inhibition, dose response, selectivity assay for GSK3beta inhibitor project, biochemical, microfluidic mobility shift, dry powder, set 2 (AID 623979); assay type: functional
Cyclin-dependent kinase 5/CDK5 activator 1, sequence (Q00535 whole entry): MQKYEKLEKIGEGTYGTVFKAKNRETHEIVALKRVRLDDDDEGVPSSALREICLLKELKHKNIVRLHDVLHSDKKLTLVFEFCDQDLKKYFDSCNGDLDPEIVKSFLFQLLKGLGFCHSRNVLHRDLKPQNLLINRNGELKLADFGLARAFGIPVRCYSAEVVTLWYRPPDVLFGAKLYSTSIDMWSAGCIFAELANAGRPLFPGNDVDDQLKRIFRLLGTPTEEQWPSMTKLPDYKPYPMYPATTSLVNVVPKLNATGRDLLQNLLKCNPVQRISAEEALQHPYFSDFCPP
Cyclin-dependent kinase 5/CDK5 activator 1, sequence (Q15078 whole entry, further chain): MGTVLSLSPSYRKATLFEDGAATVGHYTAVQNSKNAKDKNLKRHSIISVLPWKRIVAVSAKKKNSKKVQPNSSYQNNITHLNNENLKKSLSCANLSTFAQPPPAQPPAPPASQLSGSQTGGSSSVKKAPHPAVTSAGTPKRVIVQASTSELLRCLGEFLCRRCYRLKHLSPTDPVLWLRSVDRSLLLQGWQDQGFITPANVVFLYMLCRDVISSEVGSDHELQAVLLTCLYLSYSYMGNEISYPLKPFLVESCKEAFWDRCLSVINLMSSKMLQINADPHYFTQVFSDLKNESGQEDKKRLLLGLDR

[4] = target: Dual specificity protein kinase CLK1 (Homo sapiens, UniProt P49759); experiment: CLK1 kinase inhibitors, off-target check, dose response, selectivity assay for Dyrk1A inhibitor project, biochemical, cherry-picked samples (AID 588811)
Dual specificity protein kinase CLK1, sequence (P49759 whole entry): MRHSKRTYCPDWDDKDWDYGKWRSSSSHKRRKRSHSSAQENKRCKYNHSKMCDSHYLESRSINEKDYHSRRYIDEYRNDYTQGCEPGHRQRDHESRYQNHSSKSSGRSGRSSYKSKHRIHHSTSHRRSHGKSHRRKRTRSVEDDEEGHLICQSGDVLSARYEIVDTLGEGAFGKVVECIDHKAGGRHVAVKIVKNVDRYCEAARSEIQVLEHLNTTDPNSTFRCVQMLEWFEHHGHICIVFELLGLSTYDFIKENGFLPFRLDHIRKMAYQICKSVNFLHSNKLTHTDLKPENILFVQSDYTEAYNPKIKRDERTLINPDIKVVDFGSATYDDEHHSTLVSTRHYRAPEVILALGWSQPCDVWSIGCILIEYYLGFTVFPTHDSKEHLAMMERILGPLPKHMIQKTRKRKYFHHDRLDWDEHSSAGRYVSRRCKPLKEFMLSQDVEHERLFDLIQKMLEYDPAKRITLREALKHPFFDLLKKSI

HeLa = experiment: HeLa cell cytotoxicity, dose response, cytotoxicity control for MITF activator project, CellTiter-Glo luminescence, cherry-pick samples (AID 540259); assay type: functional, cell-based; conditions: Homo sapiens
[5] = HeLa cell cytotoxicity, dose response, cytotoxicity control for MgcRacGAP inhibitor project (AID 624300); assay type: functional
[6] = target: Dual specificity tyrosine-phosphorylation-regulated kinase 1A (Rattus norvegicus, UniProt Q63470); assay type: biochemical, Homo sapiens
[7] = cytotoxicity in HMLE control line with eGFP shRNA, dose response, counter-screen for HMLE_sh_ECad selective toxicity project, cell-based, HMLE_sh_eGFP, luminescence (AID 463074); assay type: functional, Homo sapiens;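 note: HMLE human mammary epithelial cells expressing control shRNA against eGFP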
[8] = Luminescence Cell-Based Dose Retest to Confirm Inhibitors of Cancer Stem Cells. [Related pubchem assays (depositor defined):AID2717, AID2721]; assay type: functional; conditions: Homo sapiens
[9] = target: Glycogen synthase kinase-3 beta (Homo sapiens, UniProt P49841); experiment: GSK3beta kinase inhibitors, dose response, biochemical, microfluidics, dry powder samples, set 2 (AID 623989); assay type: functional
Glycogen synthase kinase-3 beta, sequence (P49841 whole entry): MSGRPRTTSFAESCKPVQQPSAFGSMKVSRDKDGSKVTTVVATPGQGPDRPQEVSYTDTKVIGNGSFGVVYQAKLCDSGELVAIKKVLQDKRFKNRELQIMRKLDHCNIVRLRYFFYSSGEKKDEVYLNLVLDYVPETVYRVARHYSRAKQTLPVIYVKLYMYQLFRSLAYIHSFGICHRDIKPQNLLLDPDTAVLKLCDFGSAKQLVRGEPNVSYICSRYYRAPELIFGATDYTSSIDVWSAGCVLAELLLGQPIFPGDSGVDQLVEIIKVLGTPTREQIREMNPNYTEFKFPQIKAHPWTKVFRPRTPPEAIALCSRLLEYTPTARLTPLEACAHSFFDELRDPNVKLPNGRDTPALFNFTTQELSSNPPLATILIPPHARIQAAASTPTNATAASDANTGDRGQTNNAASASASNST

[10] = target: T2, Neuropeptides B/W receptor type 1 (Homo sapiens, UniProt P48145); experiment: GPR7 antagonist potency, late-stage follow-up, cell-based, fluorescence, dose response, set 5 (AID 588566); assay type: functional
T2 sequence (P48145 whole entry): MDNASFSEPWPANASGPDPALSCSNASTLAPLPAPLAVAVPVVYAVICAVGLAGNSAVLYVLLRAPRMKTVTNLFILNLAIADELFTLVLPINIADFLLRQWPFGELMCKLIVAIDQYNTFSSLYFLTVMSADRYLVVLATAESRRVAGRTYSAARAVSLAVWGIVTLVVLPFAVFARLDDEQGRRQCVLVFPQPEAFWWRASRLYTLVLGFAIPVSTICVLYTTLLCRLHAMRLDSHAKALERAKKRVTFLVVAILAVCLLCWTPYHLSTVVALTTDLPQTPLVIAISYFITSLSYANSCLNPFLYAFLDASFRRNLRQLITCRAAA

[11] = target: Melanin-concentrating hormone receptor 1 (Homo sapiens, UniProt Q99705); experiment: Late-stage fluorescence-based counterscreen for antagonists of the G-protein coupled receptor 7 (GPR7): cell-based dose response assay to identify antagonists of the melanin-concentrating hormone receptor 1 (MCHR1) Set 5.; assay type: functional
Melanin-concentrating hormone receptor 1, sequence (Q99705 whole entry): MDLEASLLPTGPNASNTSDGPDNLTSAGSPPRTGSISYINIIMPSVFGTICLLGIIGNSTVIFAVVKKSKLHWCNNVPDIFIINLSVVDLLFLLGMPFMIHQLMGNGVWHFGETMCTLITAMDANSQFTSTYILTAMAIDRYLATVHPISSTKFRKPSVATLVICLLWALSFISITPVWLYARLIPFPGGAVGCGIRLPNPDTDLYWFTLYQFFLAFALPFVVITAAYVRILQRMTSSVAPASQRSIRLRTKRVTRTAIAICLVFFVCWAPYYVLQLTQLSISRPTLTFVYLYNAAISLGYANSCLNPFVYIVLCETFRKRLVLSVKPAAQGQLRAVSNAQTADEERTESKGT

COc1cccc(Nc2nc(-c3ccc(O)cc3)cs2)c1
active: IC50 [1] 66.1 µM | AC50 [2] 8.21 µM | AC50 [3] 33 µM | AC50 [4] 7.47 µM | AC50 (HeLa) 54.8 µM | CC50 [5] 100 µM | AC50 [6] 10.2 µM | AC50 [7] 34.7 µM | AC50 [8] 19.6 µM | AC50 [9] 2.8 µM

COc1ccc(Oc2c(Cl)cnn(CC(=O)c3ccc(Cl)cc3Cl)c2=O)cc1
active: IC50 [10] 1.85 µM | IC50 [11] 5.47 µM
